Data as given in article PMC7382816 (BMC Pharmacology & Toxicology, 2020).
Like-named read-outs stand apart in the source and are kept apart here.

Columns and labels:
[1] = review; ref [26] Swan et al.; cited from earlier work
[2] = Single-dose pharmacokinetics in healthy volunteers under fasting and fed (high-fat breakfast) conditions, plasma concentrations by HPLC-MS, non-compartmental analysis; assay type: in vivo, human; set-up: Ke: unit not given here
From the text: The bioequivalence clinical trials were phase I, randomized, open-label, crossover, single-centre, with two periods separated by a 7-day washout stage. Subjects were randomised to one of the two treatment sequences, RT or TR where R was the reference formulation and T was the test formulation. Each of the clinical trial was crossover for evaluation of a test formulation compared to a reference formulation either under fed or fasting conditions. […] The treatments were allocated in a balanced manner on every inclusion day (blocks of 4 subjects). Our study adheres to CONSORT guidelines. […] Sample processing, genotyping for CYP2C19 and drug quantification were performed according to Román et al. […] Pharmacokinetic parameters were estimated from the plasma concentration–time data by non-compartmental analysis (WinNonlin Professional, version 2.0., Pharsight Corporation, USA) as reported by Román et al. […] WinNonLin Professional software version 2.0 was used for the statistical analysis. Pharmacokinetic parameters were log-transformed, and AUC and Cmax were adjusted for dose and weight. The values of pharmacokinetic parameters were expressed as mean ± standard deviation.

[3] = Fed (high-fat breakfast), all subjects, single oral dose, mean ± SD
[4] = both sexes, human, plasma, oral, only CYP2C19*1/*1 subjects, Fast, men and women, mean ± SD
[5] = both sexes, human, plasma, oral, only CYP2C19*1/*1 subjects, Fed, men and women, mean ± SD
[6] = both sexes, human, plasma, po, Fast, all subjects, single oral dose, mean ± SD
[7] = both sexes, human, plasma, po, Fed (high-fat breakfast), all subjects, single oral dose, mean ± SD
[8] = female, human, plasma, oral, only CYP2C19*1/*1 subjects, Fast, women, mean ± SD
[9] = female, human, plasma, oral, only CYP2C19*1/*1 subjects, Fed, women, mean ± SD
[10] = female, human, plasma, po, Fast, women, single oral dose, mean ± SD
[11] = female, human, plasma, po, Fed, women, single oral dose, mean ± SD
[12] = male, human, plasma, oral, only CYP2C19*1/*1 subjects, Fast, men, mean ± SD
[13] = male, human, plasma, oral, only CYP2C19*1/*1 subjects, Fed, men, mean ± SD
[14] = male, human, plasma, po, Fast, men, single oral dose, mean ± SD
[15] = male, human, plasma, po, Fed, men, single oral dose, mean ± SD

COCCCOc1ccnc(C[S+]([O-])c2nc3ccccc3[nH]2)c1C (centres unmarked) [Rabeprazole, rabeprazole]
influence of co-ingestion of food on bioavailability [1]: not influenced | Ke ([2]; Fast, all subjects, single oral dose, mean ± SD): 0.60 ± 0.20 | Ke ([2]; Fast, men, single oral dose, mean ± SD): 0.64 ± 0.20 | Ke ([2]; Fast, women, single oral dose, mean ± SD): 0.56 ± 0.20 | Cmax [2, 3]: 675.8 ± 218.8 ng/mL | Ke [2, 3]: 0.42 ± 0.22 | Ke ([2]; Fed, men, single oral dose, mean ± SD): 0.38 ± 0.17 | Ke ([2]; Fed, women, single oral dose, mean ± SD): 0.48 ± 0.27 | AUC(0-inf) [2, 4]: 901 ± 235 ng·h/mL | CL/F [2, 4]: 6.17 mL/min/kg | Vd/F [2, 4]: 0.6 ± 0.11 L/kg | half-life [2, 4]: 1.3 ± 0.6 h | Cmax ([2]; both sexes, human, plasma, oral, only CYP2C19*1/*1 subjects, Fast, men and women, mean ± SD, read-out: Cmax): 536 ± 138 ng/mL | Tmax ([2]; both sexes, human, plasma, oral, only CYP2C19*1/*1 subjects, Fast, men and women, mean ± SD, read-out: Tmax): 3.9 ± 0.8 h | AUC(0-inf) [2, 5]: 969 ± 388 ng·h/mL | CL/F [2, 5]: 6.33 mL/min/kg | Vd/F [2, 5]: 0.92 ± 0.34 L/kg | half-life [2, 5]: 2 ± 0.9 h | Cmax ([2]; both sexes, human, plasma, oral, only CYP2C19*1/*1 subjects, Fed, men and women, mean ± SD, read-out: Cmax): 606 ± 207 ng/mL | Tmax ([2]; both sexes, human, plasma, oral, only CYP2C19*1/*1 subjects, Fed, men and women, mean ± SD, read-out: Tmax): 9.1 ± 3.3 h | Tmax ([2]; both sexes, human, plasma, oral, under fasting conditions, range among subjects, read-out: Tmax range): 2 to 7 h | Tmax ([2]; both sexes, human, plasma, oral, under fed conditions, range among subjects, read-out: Tmax range): 3 to 20 h | AUC(0-inf) [2, 6]: 972 ± 361 ng·h/mL | CL/F [2, 6]: 5.83 mL/min/kg | Vd/F [2, 6]: 0.6 ± 0.17 L/kg | half-life [2, 6]: 1.3 ± 0.5 h | Cmax ([2]; both sexes, human, plasma, po, Fast, all subjects, single oral dose, mean ± SD, read-out: Cmax): 556 ± 176 ng/mL | Tmax ([2]; both sexes, human, plasma, po, Fast, all subjects, single oral dose, mean ± SD, read-out: Tmax): 3.7 ± 0.9 h | AUC(0-inf) [2, 7]: 1050 ± 382 ng·h/mL | CL/F [2, 7]: 5.67 mL/min/kg | Vd/F [2, 7]: 0.91 ± 0.45 L/kg | half-life [2, 7]: 2.2 ± 1.3 h | Tmax ([2]; both sexes, human, plasma, po, Fed (high-fat breakfast), all subjects, single oral dose, mean ± SD, read-out: Tmax): 7.2 ± 2.6 h | difference in AUC between men and women ([2]; effect of sex (CYP2C19*1/*1 subjects, fed conditions)): around 5% | Cmax higher under fed conditions ([2]; fed vs fasting, all subjects): 21% | Delay of mean Tmax (absorption) by food ([2]; fed vs fasting, all subjects): about 3.5 h | half-life higher under fed conditions ([2]; fed vs fasting, all subjects): 66% | Delay of Tmax by food ([2]; fed vs fasting, only subjects with CYP2C19*1/*1): 5.2 h | AUC(0-inf) [2, 8]: 932 ± 172 ng·h/mL | CL/F [2, 8]: 6.83 mL/min/kg | Vd/F [2, 8]: 0.61 ± 0.12 L/kg | half-life [2, 8]: 1.1 ± 0.2 h | Cmax ([2]; female, human, plasma, oral, only CYP2C19*1/*1 subjects, Fast, women, mean ± SD, read-out: Cmax): 560 ± 136 ng/mL | Tmax ([2]; female, human, plasma, oral, only CYP2C19*1/*1 subjects, Fast, women, mean ± SD, read-out: Tmax): 3.8 ± 0.7 h | AUC(0-inf) [2, 9]: 944 ± 470 ng·h/mL | CL/F [2, 9]: 7.5 mL/min/kg | Vd/F [2, 9]: 0.85 ± 0.32 L/kg | half-life [2, 9]: 1.5 ± 0.9 h | Cmax ([2]; female, human, plasma, oral, only CYP2C19*1/*1 subjects, Fed, women, mean ± SD, read-out: Cmax): 634 ± 221 ng/mL | Tmax ([2]; female, human, plasma, oral, only CYP2C19*1/*1 subjects, Fed, women, mean ± SD, read-out: Tmax): 8.2 ± 0.6 h | AUC(0-inf) [2, 10]: 1120 ± 361 ng·h/mL | CL/F [2, 10]: 5.83 mL/min/kg | Vd/F [2, 10]: 0.65 ± 0.2 L/kg | half-life [2, 10]: 1.4 ± 0.5 h | Cmax ([2]; female, human, plasma, po, Fast, women, single oral dose, mean ± SD, read-out: Cmax): 638 ± 177 ng/mL | Tmax ([2]; female, human, plasma, po, Fast, women, single oral dose, mean ± SD, read-out: Tmax): 3.7 ± 0.9 h | AUC(0-inf) [2, 11]: 1050 ± 420 ng·h/mL | CL/F [2, 11]: 6.33 mL/min/kg | Vd/F [2, 11]: 0.92 ± 0.37 L/kg | half-life [2, 11]: 2 ± 1.3 h | Cmax ([2]; female, human, plasma, po, Fed, women, single oral dose, mean ± SD, read-out: Cmax): 728 ± 284 ng/mL | Tmax ([2]; female, human, plasma, po, Fed, women, single oral dose, mean ± SD, read-out: Tmax): 7.6 ± 2 h | AUC(0-inf) [2, 12]: 870 ± 296 ng·h/mL | CL/F [2, 12]: 5.5 mL/min/kg | Vd/F [2, 12]: 0.59 ± 0.1 L/kg | half-life [2, 12]: 1.5 ± 0.7 h | Cmax ([2]; male, human, plasma, oral, only CYP2C19*1/*1 subjects, Fast, men, mean ± SD, read-out: Cmax): 512 ± 147 ng/mL | Tmax ([2]; male, human, plasma, oral, only CYP2C19*1/*1 subjects, Fast, men, mean ± SD, read-out: Tmax): 3.9 ± 1 h | AUC(0-inf) [2, 13]: 1000 ± 323 ng·h/mL | CL/F [2, 13]: 5 mL/min/kg | Vd/F [2, 13]: 1.02 ± 0.39 L/kg | half-life [2, 13]: 2.5 ± 0.7 h | Cmax ([2]; male, human, plasma, oral, only CYP2C19*1/*1 subjects, Fed, men, mean ± SD, read-out: Cmax): 572 ± 215 ng/mL | Tmax ([2]; male, human, plasma, oral, only CYP2C19*1/*1 subjects, Fed, men, mean ± SD, read-out: Tmax): 10.3 ± 5.1 h | AUC(0-inf) [2, 14]: 836 ± 313 ng·h/mL | CL/F [2, 14]: 5.83 mL/min/kg | Vd/F [2, 14]: 0.55 ± 0.11 L/kg | half-life [2, 14]: 1.2 ± 0.5 h | Cmax ([2]; male, human, plasma, po, Fast, men, single oral dose, mean ± SD, read-out: Cmax): 479 ± 140 ng/mL | Tmax ([2]; male, human, plasma, po, Fast, men, single oral dose, mean ± SD, read-out: Tmax): 3.6 ± 0.9 h | AUC(0-inf) [2, 15]: 1050 ± 361 ng·h/mL | CL/F [2, 15]: 5.17 mL/min/kg | Vd/F [2, 15]: 0.91 ± 0.52 L/kg | half-life [2, 15]: 2.3 ± 1.3 h | Cmax ([2]; male, human, plasma, po, Fed, men, single oral dose, mean ± SD, read-out: Cmax): 635 ± 145 ng/mL | Tmax ([2]; male, human, plasma, po, Fed, men, single oral dose, mean ± SD, read-out: Tmax): 6.9 ± 3 h | Ke ([2]; only CYP2C19*1/*1 subjects, Fast, men and women, mean ± SD): 0.63 ± 0.20 | Ke ([2]; only CYP2C19*1/*1 subjects, Fast, men, mean ± SD): 0.57 ± 0.25 | Ke ([2]; only CYP2C19*1/*1 subjects, Fast, women, mean ± SD): 0.68 ± 0.13 | Ke ([2]; only CYP2C19*1/*1 subjects, Fed, men and women, mean ± SD): 0.45 ± 0.23 | Ke ([2]; only CYP2C19*1/*1 subjects, Fed, men, mean ± SD): 0.30 ± 0.11 | Ke ([2]; only CYP2C19*1/*1 subjects, Fed, women, mean ± SD): 0.57 ± 0.25
